{"source": "patent US20100028889A1", "about": "“COMPANION DIAGNOSTIC ASSAYS FOR CANCER THERAPY” (ABBOTT LABORATORIES, priority 2006, published 2010)", "experiment_in_all_cases": "cell cytotoxicity EC50, CellTiter Glo, SCLC cell line", "type_in_all_cases": "cell-based, human", "key": {"DMS 114": {"tested_on": "DMS 114", "experimental": "(§1) The SCLC and leukemia/lymphoma cell lines listed below were obtained from the American Type Culture Collection (Manassas, Va.), Deutsche Sammlung von Mikroorganismen und Zellkulturen (DSMZ, Braunsweig, Germany), or were the generous gift from Dr. Louis Staudt (National Cancer Institute) and were cultured as described in Tse, C., Shoemaker, A. R., Adickes, J., et al., “ABT-263: a potent and orally bioavailable Bcl-2 family inhibitor,” Cancer Res 2008; 68: 3421-3428; and Tahir, S. K., Yang, X., Anderson, M. G., et al., “Influence of Bcl-2 family members on the cellular response of small-cell lung cancer cell lines to ABT-737,” Cancer Res 2007; 67: 1176-1183.\n(§2) Cells were treated at 10,000 or 50,000 cells per well for adherent or suspension cells, respectively, in 96-well microtiter plates in the presence of 10% human serum for 48 hours with or without ABT-263, in a humidified chamber with 5% CO2. ABT-263 was synthesized as previously described in Tse, C., Shoemaker, A. R., Adickes, J., et al., “ABT-263: a potent and orally bioavailable Bcl-2 family inhibitor,” Cancer Res 2008; 68: 3421-3428; and Oltersdorf, T., Elmore, S. W., Shoemaker, A. R., et al., “An inhibitor of Bcl-2 family proteins induces regression of solid tumours,” Nature 2005; 435: 677-681, and cell cytotoxicity EC50 values were assessed using CellTiter Glo (Promega, Madison Wis.)."}, "DMS 53": {"tested_on": "DMS 53", "experimental": "as §1, §2"}, "DMS153": {"tested_on": "DMS153", "experimental": "as §1, §2"}, "DMS79": {"tested_on": "DMS79", "experimental": "as §1, §2"}, "H69AR": {"tested_on": "H69AR", "experimental": "as §1, §2"}, "NCI-1048": {"tested_on": "NCI-1048", "experimental": "as §1, §2"}, "NCI-H1105": {"tested_on": "NCI-H1105", "experimental": "as §1, §2"}, "NCI-H128": {"tested_on": "NCI-H128", "experimental": "as §1, §2"}, "NCI-H1436": {"tested_on": "NCI-H1436", "experimental": "as §1, §2"}, "NCI-H1618": {"tested_on": "NCI-H1618", "experimental": "as §1, §2"}, "NCI-H1672": {"tested_on": "NCI-H1672", "experimental": "as §1, §2"}, "NCI-H1688": {"tested_on": "NCI-H1688", "experimental": "as §1, §2"}, "NCI-H1836": {"tested_on": "NCI-H1836", "experimental": "as §1, §2"}, "NCI-H187": {"tested_on": "NCI-H187", "experimental": "as §1, §2"}, "NCI-H1930": {"tested_on": "NCI-H1930", "experimental": "as §1, §2"}, "NCI-H1963": {"tested_on": "NCI-H1963", "experimental": "as §1, §2"}, "NCI-H196": {"tested_on": "NCI-H196", "experimental": "as §1, §2"}, "NCI-H2081": {"tested_on": "NCI-H2081", "experimental": "as §1, §2"}, "NCI-H2107": {"tested_on": "NCI-H2107", "experimental": "as §1, §2"}, "NCI-H345": {"tested_on": "NCI-H345", "experimental": "as §1, §2"}, "NCI-H378": {"tested_on": "NCI-H378", "experimental": "as §1, §2"}, "NCI-H510": {"tested_on": "NCI-H510", "experimental": "as §1, §2"}, "NCI-H524": {"tested_on": "NCI-H524", "experimental": "as §1, §2"}, "NCI-H526": {"tested_on": "NCI-H526", "experimental": "as §1, §2"}, "NCI-H82": {"tested_on": "NCI-H82", "experimental": "as §1, §2"}, "NCI-H847": {"tested_on": "NCI-H847", "experimental": "as §1, §2"}, "NCI-H889": {"tested_on": "NCI-H889", "experimental": "as §1, §2"}, "SHP-77": {"tested_on": "SHP-77", "experimental": "as §1, §2"}, "SW 1271": {"tested_on": "SW 1271", "experimental": "as §1, §2"}, "[1]": {"conditions": "10% human serum, 48 hours, read-out: EC50"}, "[2]": {"conditions": "Homo sapiens, read-out: Response Designation"}}, "note": "Read-outs that look alike come from different tables or passages of the source."}
{"molecule": "CC1(C)CCC(c2ccc(Cl)cc2)=C(CN2CCN(c3ccc(C(=O)NS(=O)(=O)c4ccc(N[C@H](CCN5CCOCC5)CSc5ccccc5)c(S(=O)(=O)C(F)(F)F)c4)cc3)CC2)C1", "note": "[ABT-263, N-(4-(4-((2-(4-chlorophenyl)-5,5-dimethyl-1-cyclohex-1-en-1-yl)methyl)piperazin-1-yl)benzoyl)-4-(((1R)-3-(morpholin-4-yl)-1-((phenylsulfanyl)methyl)propyl)amino)-3-((trifluoromethyl)sulfonyl)benzenesulfonamide]", "values": [{"measurement": "EC50", "setting": "DMS 114; [1]", "result": 33.9, "unit": "µM"}, {"measurement": "EC50", "setting": "DMS 114; [2]", "result": "> 4.1", "unit": "µM"}, {"measurement": "EC50", "setting": "DMS 53; [1]", "result": 1.6, "unit": "µM"}, {"measurement": "EC50", "setting": "DMS 53; [2]", "result": "≤ 4.1", "unit": "µM"}, {"measurement": "EC50", "setting": "DMS153; DMS-153, 10% human serum, 48 hours, read-out: EC50", "result": 11, "unit": "µM"}, {"measurement": "EC50", "setting": "DMS153; Homo sapiens, DMS-153, read-out: Response Designation", "result": "> 4.1", "unit": "µM"}, {"measurement": "EC50", "setting": "DMS79; DMS-79, 10% human serum, 48 hours, read-out: EC50", "result": 1.9, "unit": "µM"}, {"measurement": "EC50", "setting": "DMS79; Homo sapiens, DMS-79, read-out: Response Designation", "result": "≤ 4.1", "unit": "µM"}, {"measurement": "EC50", "setting": "H69AR; [1]", "result": 22.3, "unit": "µM"}, {"measurement": "EC50", "setting": "H69AR; [2]", "result": "> 4.1", "unit": "µM"}, {"measurement": "EC50", "setting": "NCI-1048; [1]", "result": 2.86, "unit": "µM"}, {"measurement": "EC50", "setting": "NCI-1048; [2]", "result": "≤ 4.1", "unit": "µM"}, {"measurement": "EC50", "setting": "NCI-H1105; [1]", "result": 0.7, "unit": "µM"}, {"measurement": "EC50", "setting": "NCI-H1105; [2]", "result": "≤ 4.1", "unit": "µM"}, {"measurement": "EC50", "setting": "NCI-H128; [1]", "result": 2.5, "unit": "µM"}, {"measurement": "EC50", "setting": "NCI-H128; [2]", "result": "≤ 4.1", "unit": "µM"}, {"measurement": "EC50", "setting": "NCI-H1436; [1]", "result": 1, "unit": "µM"}, {"measurement": "EC50", "setting": "NCI-H1436; [2]", "result": "≤ 4.1", "unit": "µM"}, {"measurement": "EC50", "setting": "NCI-H1618; [1]", "result": 1.4, "unit": "µM"}, {"measurement": "EC50", "setting": "NCI-H1618; [2]", "result": "≤ 4.1", "unit": "µM"}, {"measurement": "EC50", "setting": "NCI-H1672; [1]", "result": 0.7, "unit": "µM"}, {"measurement": "EC50", "setting": "NCI-H1672; [2]", "result": "≤ 4.1", "unit": "µM"}, {"measurement": "EC50", "setting": "NCI-H1688; [1]", "result": 8.07, "unit": "µM"}, {"measurement": "EC50", "setting": "NCI-H1688; [2]", "result": "> 4.1", "unit": "µM"}, {"measurement": "EC50", "setting": "NCI-H1836; [1]", "result": 0.4, "unit": "µM"}, {"measurement": "EC50", "setting": "NCI-H1836; [2]", "result": "≤ 4.1", "unit": "µM"}, {"measurement": "EC50", "setting": "NCI-H187; [1]", "result": 0.21, "unit": "µM"}, {"measurement": "EC50", "setting": "NCI-H187; [2]", "result": "≤ 4.1", "unit": "µM"}, {"measurement": "EC50", "setting": "NCI-H1930; [1]", "result": 3, "unit": "µM"}, {"measurement": "EC50", "setting": "NCI-H1930; [2]", "result": "≤ 4.1", "unit": "µM"}, {"measurement": "EC50", "setting": "NCI-H1963; [1]", "result": 0.18, "unit": "µM"}, {"measurement": "EC50", "setting": "NCI-H1963; [2]", "result": "≤ 4.1", "unit": "µM"}, {"measurement": "EC50", "setting": "NCI-H196; [1]", "result": 38.6, "unit": "µM"}, {"measurement": "EC50", "setting": "NCI-H196; [2]", "result": "> 4.1", "unit": "µM"}, {"measurement": "EC50", "setting": "NCI-H2081; [1]", "result": 12, "unit": "µM"}, {"measurement": "EC50", "setting": "NCI-H2081; [2]", "result": "> 4.1", "unit": "µM"}, {"measurement": "EC50", "setting": "NCI-H2107; [1]", "result": 0.3, "unit": "µM"}, {"measurement": "EC50", "setting": "NCI-H2107; [2]", "result": "≤ 4.1", "unit": "µM"}, {"measurement": "EC50", "setting": "NCI-H345; [1]", "result": 2.16, "unit": "µM"}, {"measurement": "EC50", "setting": "NCI-H345; [2]", "result": "≤ 4.1", "unit": "µM"}, {"measurement": "EC50", "setting": "NCI-H378; [1]", "result": "> 50", "unit": "µM"}, {"measurement": "EC50", "setting": "NCI-H378; [2]", "result": "> 4.1", "unit": "µM"}, {"measurement": "EC50", "setting": "NCI-H510; [1]", "result": 1.22, "unit": "µM"}, {"measurement": "EC50", "setting": "NCI-H510; [2]", "result": "≤ 4.1", "unit": "µM"}, {"measurement": "EC50", "setting": "NCI-H524; [1]", "result": 0.08, "unit": "µM"}, {"measurement": "EC50", "setting": "NCI-H524; [2]", "result": "≤ 4.1", "unit": "µM"}, {"measurement": "EC50", "setting": "NCI-H526; [1]", "result": 12.6, "unit": "µM"}, {"measurement": "EC50", "setting": "NCI-H526; [2]", "result": "> 4.1", "unit": "µM"}, {"measurement": "EC50", "setting": "NCI-H82; [1]", "result": 22.4, "unit": "µM"}, {"measurement": "EC50", "setting": "NCI-H82; [2]", "result": "> 4.1", "unit": "µM"}, {"measurement": "EC50", "setting": "NCI-H847; [1]", "result": 0.06, "unit": "µM"}, {"measurement": "EC50", "setting": "NCI-H847; [2]", "result": "≤ 4.1", "unit": "µM"}, {"measurement": "EC50", "setting": "NCI-H889; [1]", "result": 0.14, "unit": "µM"}, {"measurement": "EC50", "setting": "NCI-H889; [2]", "result": "≤ 4.1", "unit": "µM"}, {"measurement": "EC50", "setting": "SHP-77; Homo sapiens, SHP77, read-out: Response Designation", "result": "≤ 4.1", "unit": "µM"}, {"measurement": "EC50", "setting": "SHP-77; SHP77, 10% human serum, 48 hours, read-out: EC50", "result": 3.9, "unit": "µM"}, {"measurement": "EC50", "setting": "SW 1271; Homo sapiens, SW1271, read-out: Response Designation", "result": "> 4.1", "unit": "µM"}, {"measurement": "EC50", "setting": "SW 1271; SW1271, 10% human serum, 48 hours, read-out: EC50", "result": 33.9, "unit": "µM"}]}
